System: bovine monocyte-derived macrophages
Experiment: microRNASeq analysis
Assay type: cell-based
Settings: CATH2 vs vehicle
Excerpt: Peripheral blood mononuclear cells (PBMC) were isolated from bovine blood using ficoll gradients. Bovine monocytes were isolated from PBMC using magnetic assisted cell sorting to positively select for CD14+ cells using anti-human CD14 microbeads (Miltenyi Biotec). Purified bovine blood CD14+ monocytes were differentiated into macrophages using an M2-skewing differentiation factor (recombinant bovine M-CSF) over 7 days then exposed to CATH2 or a vehicle control in the presence of bovine casein to mimic aspects of the mammary gland for 24 hr. Following treatment, vehicle and drug were removed and cells were washed to eliminate residual drug and monocyte-derived macrophages were rested for 3 days in order to assess reprogramming. Following the rest period, a subset of vehicle- and CATH2-trained monocyte-derived macrophages were assessed for epigenetic and transcriptomic changes. The remaining cells were challenged with LPS or E. coli bioparticle labeled with pH-sensitive pHrodo green dye and key parameters for macrophage activation/immune response were assessed including glycolytic activity, surface marker expression, gene expression, cytokine production, phagocytosis, reactive nitrogen species production, and miRNA profiling.
Bovine monocyte-derived macrophages were lysed in Buffer RLT with addition of (3-mercaptoethanol (QIAGEN) and stored at −80° C. until miRNA/mRNA isolations could be performed. Total RNA including miRNA was isolated from cell lysates using the miRNeasy Tissues/Cells Advanced kit (QIAGEN) following the manufacturer's instructions. mRNA and miRNA libraries were prepared using the TruSeq Stranded mRNA Library Prep Kit (Illumina) and QIAseq miRNA Library Kit, respectively (QIAGEN) according to the manufacturer's instructions. Libraries were run on the Illumina NextSeq550 System. Sequencing data were analyzed using CLC Genomics Workbench software and QIAGEN Ingenuity Pathway Analysis (IPA).

[1] = 3-day rest, 8-hour post-LPS, Experiment A
[2] = 3-day rest, 8-hour post-LPS, Experiment B
[3] = 3-day rest, 24-hour post-LPS, Experiment A
[4] = 3-day rest, 24-hour post-LPS, Experiment B
[5] = after 3-day rest, prior to LPS challenge

RFGRFLRKIRRFRPKVTITIQGSARFG [CATH2, cathelicidin 2 peptide]
bta-miR-146b Fold change [1]: 2.85
bta-miR-146b Log2 fold change [1]: 1.51
bta-miR-148a Fold change [1]: −1.79
bta-miR-148a Log2 fold change [1]: −0.84
bta-miR-181b Fold change [1]: 1.60
bta-miR-181b Log2 fold change [1]: 0.68
bta-miR-1814c Fold change [1]: −1.77
bta-miR-1814c Log2 fold change [1]: −0.83
hsa-miR-155-5p Fold change [1]: 1.89
hsa-miR-155-5p Log2 fold change [1]: 0.92
bta-miR-146b Fold change [2]: 1.56
bta-miR-146b Log2 fold change [2]: 0.64
bta-miR-148a Fold change [2]: −1.44
bta-miR-148a Log2 fold change [2]: −0.52
bta-miR-181b Fold change [2]: 1.76
bta-miR-181b Log2 fold change [2]: 0.82
bta-miR-1814c Fold change [2]: −2.05
bta-miR-1814c Log2 fold change [2]: −1.04
hsa-miR-155-5p Fold change [2]: 2.20
hsa-miR-155-5p Log2 fold change [2]: 1.14
bta-miR-146b Fold change [3]: 4.52
bta-miR-146b Log2 fold change [3]: 2.18
hsa-miR-146b-5p Fold change [3]: 2.27
hsa-miR-146b-5p Log2 fold change [3]: 1.18
bta-miR-146b Fold change [4]: 4.34
bta-miR-146b Log2 fold change [4]: 2.12
hsa-miR-146b-5p Fold change [4]: 1.71
hsa-miR-146b-5p Log2 fold change [4]: 0.77
bta-miR-27a-3p Fold change [5]: −1.31
bta-miR-27a-3p Log fold change [5]: −0.39
bta-miR-29a Fold change [5]: −1.36
bta-miR-29a Log fold change [5]: −0.44
bta-miR-29c Fold change [5]: −1.45
bta-miR-29c Log fold change [5]: −0.54
bta-miR-30f Fold change [5]: 1.57
bta-miR-30f Log fold change [5]: 0.65
bta-miR-92b Fold change [5]: 1.52
bta-miR-92b Log fold change [5]: 0.60
bta-miR-101 Fold change [5]: −1.47
bta-miR-101 Log fold change [5]: −0.55
bta-miR-142-5p Fold change [5]: −1.43
bta-miR-142-5p Log fold change [5]: −0.51
bta-miR-148a Fold change [5]: −1.78
bta-miR-148a Log fold change [5]: −0.83
bta-miR-148b Fold change [5]: −1.43
bta-miR-148b Log fold change [5]: −0.51
bta-miR-149-5p Fold change [5]: 1.43
bta-miR-149-5p Log fold change [5]: 0.52
bta-miR-181b Fold change [5]: 1.38
bta-miR-181b Log fold change [5]: 0.47
bta-miR-184 Fold change [5]: 2.61
bta-miR-184 Log fold change [5]: 1.38
bta-miR-187 Fold change [5]: −2.07
bta-miR-187 Log fold change [5]: −1.05
bta-miR-193a-5p Fold change [5]: 1.60
bta-miR-193a-5p Log fold change [5]: 0.68
bta-miR-197 Fold change [5]: 1.37
bta-miR-197 Log fold change [5]: 0.46
bta-miR-199a-3p Fold change [5]: 1.92
bta-miR-199a-3p Log fold change [5]: 0.94
bta-miR-296-5p Fold change [5]: 2.10
bta-miR-296-5p Log fold change [5]: 1.07
bta-miR-320a Fold change [5]: 1.68
bta-miR-320a Log fold change [5]: 0.75
bta-miR-326 Fold change [5]: 1.47
bta-miR-326 Log fold change [5]: 0.55
bta-miR-331-3p Fold change [5]: 1.61
bta-miR-331-3p Log fold change [5]: 0.69
bta-miR-365-3p Fold change [5]: 1.59
bta-miR-365-3p Log fold change [5]: 0.67
bta-miR-374a Fold change [5]: −1.59
bta-miR-374a Log fold change [5]: −0.67
bta-miR-500 Fold change [5]: 1.43
bta-miR-500 Log fold change [5]: 0.51
bta-miR-652 Fold change [5]: 1.46
bta-miR-652 Log fold change [5]: 0.54
bta-miR-877 Fold change [5]: 1.93
bta-miR-877 Log fold change [5]: 0.95
bta-miR-1249 Fold change [5]: 1.43
bta-miR-1249 Log fold change [5]: 0.52
bta-miR-1260b Fold change [5]: 1.63
bta-miR-1260b Log fold change [5]: 0.70
bta-miR-1307 Fold change [5]: 1.49
bta-miR-1307 Log fold change [5]: 0.57
bta-miR-2285bf Fold change [5]: −1.52
bta-miR-2285bf Log fold change [5]: −0.61
bta-miR-2447 Fold change [5]: 1.92
bta-miR-2447 Log fold change [5]: 0.94
bta-miR-6523a Fold change [5]: 1.39
bta-miR-6523a Log fold change [5]: 0.47
bta-miR-6529a Fold change [5]: 1.32
bta-miR-6529a Log fold change [5]: 0.40
hsa-let-7d-3p Fold change [5]: 1.62
hsa-let-7d-3p Log fold change [5]: 0.70
hsa-miR-30e-5p Fold change [5]: −1.45
hsa-miR-30e-5p Log fold change [5]: −0.54
hsa-miR-16-1-3p Fold change [5]: −2.57
hsa-miR-16-1-3p Log fold change [5]: −1.36
hsa-miR-21-5p Fold change [5]: −1.33
hsa-miR-21-5p Log fold change [5]: −0.41
hsa-miR-29a-3p Fold change [5]: −1.32
hsa-miR-29a-3p Log fold change [5]: 0.40
hsa-miR-29b-1-5p Fold change [5]: 1.90
hsa-miR-29b-1-5p Log fold change [5]: 0.92
hsa-miR-142-3p Fold change [5]: −1.57
hsa-miR-142-3p Log fold change [5]: −0.65
hsa-miR-142-5p Fold change [5]: −1.55
hsa-miR-142-5p Log fold change [5]: −0.63
hsa-miR-143-3p Fold change [5]: −1.96
hsa-miR-143-3p Log fold change [5]: −0.97
hsa-miR-152-3p Fold change [5]: −1.37
hsa-miR-152-3p Log fold change [5]: 0.45
hsa-miR-155-5p Fold change [5]: 1.31
hsa-miR-155-5p Log fold change [5]: 0.39
hsa-miR-192-5p Fold change [5]: −1.47
hsa-miR-192-5p Log fold change [5]: −0.56
hsa-miR-340-5p Fold change [5]: −1.47
hsa-miR-340-5p Log fold change [5]: −0.56
hsa-miR-532-3p Fold change [5]: 1.51
hsa-miR-532-3p Log fold change [5]: 0.60
hsa-miR-574-3p Fold change [5]: 1.36
hsa-miR-574-3p Log fold change [5]: 0.44
hsa-miR-1260b Fold change [5]: 2.19
hsa-miR-1260b Log fold change [5]: 1.13
hsa-miR-9983-3p Fold change [5]: −1.40
hsa-miR-9983-3p Log fold change [5]: 0.48
hsa-miR-10395-3p Fold change [5]: −2.92
hsa-miR-10395-3p Log fold change [5]: −1.55
hsa-miR-12135 Fold change [5]: −1.63
hsa-miR-12135 Log fold change [5]: −0.71
Number of miRNAs significantly altered (after rest period, prior to LPS challenge): 51
